Measured values published in the supplement of paper PMC10307832.

Compound: O=C(/C=C/c1cccnc1)NCCCCC1CCN(C(=O)c2ccccc2)CC1 [Daporinad] + CC1(C)CCC(c2ccc(Cl)cc2)=C(CN2CCN(c3ccc(C(=O)NS(=O)(=O)c4ccc(N[C@H](CCN5CCOCC5)CSc5ccccc5)c(S(=O)(=O)C(F)(F)F)c4)cc3)CC2)C1 [Navitoclax] (partner 0.5 µM)
Experiment: relative viability (nuclei count vs DMSO), 5 days (fraction); higher = more cells survive
Settings: first compound 0.001581 µM
Outline: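 Each reported value is a median over duplicate plates. It expresses relative viability: treated-well nuclei count divided by vehicle-well nuclei count. Lung cancer cell lines in 1536-well plates were dosed by pin tool a day after seeding, alone with one drug or with a fixed anchor-drug dose plus five library-drug doses (not always all listed) in √10 steps, and nuclei were counted after 5 days.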

Cell Line	relative viability
NCI-H3122	1.02
NCI-H1437	1.1
NCI-H1755	0.974
NCI-H2023	1.14
HCC-15	0.776
PC-3 [JPC-3]	0.796
EKVX	0.914
LC-2-ad	0.544
NCI-H1975	1.18
SK-LU-1	0.646
NCI-H1944	1.05
RERF-LC-KJ	0.984

Same assay, conditions: first compound 0.005 µM

Cell Line	relative viability
BEN	0.0521
HARA	1.14
HCC-78	0.842
NCI-H322M	1.25
LCLC-97TM1	0.37
NCI-H2009	1.22
A-427	0.722
NCI-H460	0.978
NCI-H1734	0.903
NCI-H520	0.258
NCI-H2347	0.885
SW 1573	0.755
NCI-H1395	1.13
201T	1.21
NCI-H1915	0.765
HCC-827	1.05
LXF-289	0.971
NCI-H23	0.658

Cell Line	relative viability
CAL-12T	0.518
NCI-H1651	0.813
EPLC-272H	1.28
NCI-H2228	1.09
NCI-H1355	1.05
NCI-H3122	1.02
NCI-H1437	1.04
NCI-H1755	1.04
NCI-H2023	0.958
HCC-15	0.716
PC-3 [JPC-3]	0.827
EKVX	0.97
LC-2-ad	0.553
NCI-H1975	1.06
SK-LU-1	0.672
NCI-H1944	0.981
RERF-LC-KJ	1.01

Same assay, conditions: first compound 0.01581 µM

Cell Line	relative viability
BEN	0.083
HARA	0.275
HCC-78	1.05
NCI-H322M	0.995
LCLC-97TM1	0.571
NCI-H2009	0.812
A-427	0.691
NCI-H460	0.855
NCI-H1734	0.601
NCI-H520	0.197
NCI-H2347	0.779
SW 1573	0.457
NCI-H1395	1.26
201T	1.2
NCI-H1915	0.809
HCC-827	1.08
LXF-289	1.02
NCI-H23	0.447
CAL-12T	0.172
NCI-H1651	0.758
EPLC-272H	1.38
NCI-H2228	0.945
NCI-H1355	0.951
NCI-H3122	0.987
NCI-H1437	1.07
NCI-H1755	0.989
NCI-H2023	0.995
